Laboratory results reported in paper PMC12234328, “A naphthalimide derivative exerts potent antiplatelet and antithrombotic activities without a bleeding tendency” (Frontiers in Pharmacology, 2025).

How the values were obtained:
[1] = tested on: collagen/epinephrine-induced pulmonary thrombosis; assay: Collagen/epinephrine-induced pulmonary embolism in mice; assay type: in vivo; settings: 1.2 mg/kg i.v., relative to DMSO group
Protocol: Pulmonary embolism was induced using collagen and epinephrine in […] ICR mice according. Briefly, mice were intravenously injected with a bolus dose of DMSO (1.1 g/kg, solvent control), compound 6 (1.2 mg/kg), or aspirin (20 mg/kg, positive control). Subsequently, a mixture of collagen (0.6 mg/kg) and epinephrine (0.2 mg/kg) was administered via the tail vein. When respiration became severely weakened but the heart was still beating, 0.5 mL of Evans blue solution (1% in saline) was injected into the heart. The lungs were then excised and photographed. Mouse mortality was monitored for 24 h, and all surviving mice were euthanized immediately after the experiment. Each group consisted of six animals.
FIGURE 4 Effects of compound 6 on collagen/epinephrine-induced pulmonary thrombosis and FeCl3-induced thrombosis in mesenteric artery. Mice were intravenously administered with DMSO (solvent control), compound 6 (1.2 mg/kg), or aspirin (20 mg/kg, positive control) for 10 min (A) Mice were injected with collagen/epinephrine to induce pulmonary embolism, which was detected through staining with Evans blue (left panel). The survival rate was recorded for 24 h (right panel). […]
(A) Mice were injected with collagen/epinephrine to induce pulmonary embolism, which was detected through staining with Evans blue. (B) The survival rate was recorded for 24 h. […]

[2] = tested on: tail bleeding (hemostasis); assay: Tail-bleeding assay; assay type: in vivo; settings: 0.3, 0.6 or 1.2 mg/kg, mice, n = 6
Protocol: For the tail-bleeding assay, the mice were anesthetized with an oxygen–air mixture containing 3% isoflurane at a gas flow rate of 1.5–2 L/min. A bolus dose of compound 6 (0.3 mg/kg, 0.6 mg/kg, or 1.2 mg/kg), DMSO (solvent control; 1.1 g/kg), or aspirin (20 mg/kg; positive control) was intraperitoneally administered for 30 min. A 3-mm incision was then made at the tail tip to induce bleeding. The bleeding tail stump was immediately immersed in saline, and the bleeding time was recorded. […] A formula for dose translation based on the […] was used to calculate the dose for use in the mice ([Reagan-Shaw et al., 2008]).
FIGURE 3 Effects of compound 6 on thrombosis and hemostasis in mice. Mice were treated with compound 6 (0.3, 0.6, or 1.2 mg/kg), DMSO (solvent control), or aspirin (20 mg/kg; positive control) via intravenous route for 10 min. (A) The microthrombus formation (arrows) in mesenteric venules. Scale bar = 30 μm. […] Each point on the plot indicates a mouse (n = 6). Data (A,B) are presented as means ± SEM (n = 6). *p < 0.05 and ***p < 0.001 compared with the DMSO group.

[3] = tested on: GPIIb–IIIa activation in human platelets; assay: GPIIb-IIIa activation by flow cytometry (APC-PAC-1); assay type: cell-based; settings: 2.5 and 5 μM, collagen 1 μg/mL, n = 4
Protocol: Flow cytometry was performed as previously described ([Lien et al., 2017]). After 20 min of collagen stimulation, the human platelets were fixed and labeled with APC-conjugated PAC-1 antibodies for 30 min to detect the level of GPIIb–IIIa activation. After centrifugation and washing, the platelets were suspended in 1 mL of phosphate-buffered saline and analyzed using a CytoFLEX flow cytometer (Beckman Coulter Life Sciences, Indianapolis, IN, United States). In the flow cytometry setup, platelets were gated using forward scatter and side scatter, and the number of events was set to stop at 10,000 counts. All experiments were performed at least three times to ensure reliable results.
FIGURE 8 Effects of compound 6 on ATP release, calcium mobilization, and GPIIb–IIIa activation triggered by collagen in human platelets. Washed platelets (3.6 × 10^8 cells/mL) were treated with compound 6 (C6, 2.5 and 5 μM) or DMSO and then stimulated with collagen (1 μg/mL) to trigger ATP release (A), calcium mobilization (B), and GPIIb–IIIa activation (C) that were detected using luciferase/luciferin, Fura-2 AM, and APC–PAC1 antibodies, respectively. Data (A–C) are presented as means ± SEM (n = 4). **p < 0.01 and ***p < 0.001 compared with the resting group. #p < 0.05, ##p < 0.01, and ###p < 0.001 compared with the DMSO (solvent control) group.

## CCCCN1C(=O)c2cccc3c(NCCNC(=O)C45CC6CC(CC(C6)C4)C5)ccc(c23)C1=O [compound 6]
[1]
  Collagen/epinephrine-induced pulmonary thrombosis (Evans blue staining of lung): could prevent
[2]
  Duration of tail-bleeding: did not significantly affect
[3]
  GPIIb–IIIa activation: significantly reduce
